Reference: US20260166039A1 (SCHRÖDINGER, INC., priority 2022, published 2026)
pIC50: −log10 of the molar value.

These compounds were tested against T1, Wee1 kinase domain (Homo sapiens, UniProt P30291) (assay: Wee1 Kinase Biochemical Assay (ADP-Glo)). Details: 1 nM Wee1 enzyme, 15 uM ATP, 4 hours at 25° C.
T1 construct: Wee1 kinase domain was purchased from Carna (catalog #05-177); purchased Carna 05-177
Outline: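 Carna Wee1 kinase domain at 1 nM, with 15 uM ATP and 2 ng/mL poly(Lys,Tyr 4:1) substrate in 40 mM Tris-HCl, 20 mM MgCl2, 0.1 mg/mL BSA, 2 mM DTT, run 4 h at 25° C. ADP formation read by ADP-Glo luminescence. Percent inhibition normalised to DMSO and saturating-inhibitor controls.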

T1 sequence (P30291 299-569 limits assumed): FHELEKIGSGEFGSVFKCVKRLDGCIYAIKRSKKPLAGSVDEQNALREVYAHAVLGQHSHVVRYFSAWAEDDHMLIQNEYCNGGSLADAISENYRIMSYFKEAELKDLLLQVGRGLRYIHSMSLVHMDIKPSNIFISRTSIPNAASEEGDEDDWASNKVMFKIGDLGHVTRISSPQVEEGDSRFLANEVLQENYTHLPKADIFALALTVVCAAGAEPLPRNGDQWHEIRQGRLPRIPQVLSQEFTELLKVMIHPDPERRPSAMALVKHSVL

| Structure (SMILES) | pIC50 |
| --- | --- |
| CN1CCN(c2ccc(Nc3ncc4c(n3)N(c3cnccn3)[C@@H]3CC(C)(C)OC[C@]43C)cc2)CC1 (single isomer, unassigned) [Example 827] | > 8.00 |
| CCn1ccc(Nc2ncc3c(n2)N(c2cccc(N=S(C)(C)=O)n2)[C@@H]2CC(C)(C)OC[C@]32C)n1 (single isomer, unassigned) [Example 830] | > 8.00 |
| CC1(C)C[C@H]2N(c3cccc(N=S(C)(C)=O)n3)c3nc(Nc4ccn(C5CC5)n4)ncc3[C@@]2(C)CO1 (single isomer, unassigned) [Example 831] | > 8.00 |

Same assay, conditions: Wee1 kinase domain, 15 uM ATP, ADP-Glo

| Structure (SMILES) | pIC50 |
| --- | --- |
| CNCc1cccc(N2c3nc(Nc4ccc(C5CCN(C)CC5)c(C)c4)ncc3[C@]3(C)COC(C)(C)C[C@H]23)n1 (single isomer, unassigned) [Example 71] | 6.00 to 7.00 |
| CN1CC(c2ccc(Nc3ncc4c(n3)N(c3cccc(N=S(C)(C)=O)n3)[C@H]3CC(C)(C)OC[C@@]43C)cc2F)C1 (single isomer, unassigned) [Example 185] | 6.00 to 7.00 |
| C[C@H]1COC(=O)N1c1cccc(N2c3nc(Nc4ccc([C@]5(C)CCN(C)C5)cc4)ncc3[C@]3(C)COC(C)(C)C[C@H]23)n1 (single isomer, unassigned) [Example 350] | 7.00 to 8.00 |
| CN1CCC[C@H](n2cc(Nc3ncc4c(n3)N(c3cccc(N=S(C)(C)=O)n3)[C@H]3CC(C)(C)OC[C@@]43C)cn2)C1 (single isomer, unassigned) [Example 200] | 7.00 to 8.00 |
| CN1CCC(n2cnc(Nc3ncc4c(n3)N(c3cccc(N=S(C)(C)=O)n3)[C@H]3CC(C)(C)OC[C@@]43C)c2)CC1 (single isomer, unassigned) [Example 206] | 6.00 to 7.00 |
| CC1(C)C[C@@H]2N(c3cccc(N=S(C)(C)=O)n3)c3nc(Nc4ccc(O[C@H]5CCNC5)cc4)ncc3[C@]2(C)CO1 (single isomer, unassigned) [Example 154] | 6.00 to 7.00 |
| C[C@H]1COC(=O)N1c1cccc(N2c3nc(Nc4ccc(N5C[C@@H]6C[C@H]5CN6C)c(F)c4)ncc3[C@]3(C)COC(C)(C)C[C@H]23)n1 (single isomer, unassigned) [Example 292] | 7.00 to 8.00 |
| C[C@H]1COC(=O)N1c1cccc(N2c3nc(Nc4ccc(N5CCCN(C)CC5)cc4)ncc3[C@]3(C)COC(C)(C)C[C@H]23)n1 (single isomer, unassigned) [Example 298] | 7.00 to 8.00 |
| CNCc1cccc(N2c3nc(Nc4ccc([C@H]5CCC(=O)N5C)cc4)ncc3[C@]3(C)COC(C)(C)C[C@H]23)n1 (single isomer, unassigned) [Example 53] | ≤ 6.00 |
| CN1CC(c2ccc(Nc3ncc4c(n3)N(c3cccc(N=S(C)(C)=O)n3)[C@H]3CC(C)(C)OC[C@@]43C)cn2)C1 (single isomer, unassigned) [Example 193] | 6.00 to 7.00 |
| C[C@H]1COC(=O)N1c1cccc(N2c3nc(Nc4cnn(C5CCNCC5)c4)ncc3[C@]3(C)COC(C)(C)C[C@H]23)n1 (single isomer, unassigned) [Example 254] | 7.00 to 8.00 |
| CNCc1cccc(N2c3nc(Nc4ccc(N5CCCCC5)cc4)ncc3[C@]3(C)COC(C)(C)C[C@H]23)n1 (single isomer, unassigned) [Example 1] | 7.00 to 8.00 |
| CNCc1cccc(N2c3nc(Nc4ccc(N5C(=O)CC[C@@H]5C)cc4)ncc3[C@@]3(C)COC(C)(C)C[C@@H]23)n1 (single isomer, unassigned) [Example 28] | > 8.00 |
| CN1Cc2cc(Nc3ncc4c(n3)N(c3cccc(N=S(C)(C)=O)n3)[C@H]3CC(C)(C)OC[C@@]43C)ccc2C(C)(C)C1 (single isomer, unassigned) [Example 136] | 7.00 to 8.00 |
| C[C@H]1COC(=O)N1c1cccc(N2c3nc(Nc4ccc(C5CCN(C)CC5)cc4)ncc3[C@]3(C)COC(C)(C)C[C@H]23)n1 (single isomer, unassigned) [Example 250] | 7.00 to 8.00 |
| CN1C[C@H]2C[C@@H]1CN2c1ccc(Nc2ncc3c(n2)N(c2cccc(N=S(C)(C)=O)n2)[C@H]2CC(C)(C)OC[C@@]32C)cc1F (single isomer, unassigned) [Example 175] | 6.00 to 7.00 |
| CNCc1cccc(N2c3nc(Nc4ccc([C@H]5CCCO5)cc4)ncc3[C@]3(C)COC(C)(C)C[C@H]23)n1 (single isomer, unassigned) [Example 58] | ≤ 6.00 |
| Cc1cc(Nc2ncc3c(n2)N(c2cccc(N=S(C)(C)=O)n2)[C@H]2CC(C)(C)OC[C@@]32C)ccc1[C@@H]1COCCN1 (single isomer, unassigned) [Example 113] | 7.00 to 8.00 |
| CN[C@@H]1CCN(c2ccc(Nc3ncc4c(n3)N(c3cccc(N5C(=O)OC[C@@H]5C)n3)[C@H]3CC(C)(C)OC[C@@]43C)cc2)C1 (single isomer, unassigned) [Example 318] | 7.00 to 8.00 |
| C[C@H]1COC(=O)N1c1cccc(N2c3nc(Nc4ccc(N5CCN(C)CC5)nc4)ncc3[C@]3(C)COC(C)(C)C[C@H]23)n1 (single isomer, unassigned) [Example 240] | 6.00 to 7.00 |
| CNCc1ccc(Nc2ncc3c(n2)N(c2cccc(N4C(=O)OC[C@@H]4C)n2)[C@H]2CC(C)(C)OC[C@@]32C)cc1 (single isomer, unassigned) [Example 359] | 7.00 to 8.00 |
| C[C@H]1COC(=O)N1c1cccc(N2c3nc(N)ncc3[C@@]3(C)COC(C)(C)C[C@@H]23)n1 (single isomer, unassigned) [Example 356] | 7.00 to 8.00 |
| CNCc1cccc(N2c3nc(Nc4ccc([C@@H]5CCC(=O)N5C)cc4)ncc3[C@]3(C)COC(C)(C)C[C@H]23)n1 (single isomer, unassigned) [Example 51] | ≤ 6.00 |
| CNCc1cccc(N2c3nc(Nc4ccc([C@H]5CCC(=O)N5C)nc4)ncc3[C@]3(C)COC(C)(C)C[C@H]23)n1 (single isomer, unassigned) [Example 97] | 6.00 to 7.00 |
| CNCc1cccc(N2c3nc(Nc4ccc(N5CCN(C)CC5)cc4)ncc3[C@]3(C)COC(C)(C)C[C@H]23)n1 (single isomer, unassigned) [Example 93] | 7.00 to 8.00 |
| C[C@H]1COC(=O)N1c1cccc(N2c3nc(Nc4ccn(C)c(=O)c4)ncc3[C@]3(C)COC(C)(C)C[C@H]23)n1 (single isomer, unassigned) [Example 340] | 6.00 to 7.00 |

Same assay, conditions: class symbols; 1 nM Wee1 enzyme, 15 uM ATP, 4 hours at 25° C.

| Structure (SMILES) | pIC50 |
| --- | --- |
| CC1(C)C[C@@H]2N(c3cccc(N4CCOC4=O)n3)c3nc(Nc4ccc([C@]5(C)CCNC5)cc4)ncc3[C@]2(C)CO1 [Example 665, 3-(6-((4bS,8aS)-46,7,7-trimethyl-2-((4-((S)-3-methylpyrrolidin-3-yl)phenyl)amino)-4b,7,8,8a-tetrahydropyrano[3′,4′:4,5]pyrrolo[2,3-d]pyrimidin-9(5H)-yl)pyridin-2-yl)oxazolidin-2-one] | 7.00 to 8.00 |
| CN1CC[C@@H](n2ccc(Nc3ncc4c(n3)N(c3cccc(N=S(C)(C)=O)n3)[C@@H]3CC(C)(C)OC[C@]43C)cc2=O)C1 [Example 804, 4-(((4bR,8aR)-9-(6-((dimethyl(oxo)-16-sulfaneylidene)amino)pyridin-2-yl)-4b,7,7-trimethyl-4b,5,7,8,8a,9-hexahydropyrano[3′,4′:4,5]pyrrolo[2,3-d]pyrimidin-2-yl)amino)-1-((R)-1-methylpyrrolidin-3-yl)pyridin-2(1H)-one] | > 8.00 |
| CC1(C)C[C@H]2N(c3cccc(N=S(C)(C)=O)n3)c3nc(Nc4ccncc4)ncc3[C@@]2(C)CO1 (single isomer, unassigned) [Example 512] | 6.00 to 7.00 |
| CC1(C)C[C@@H]2N(c3cccc([C@H]4CCNC4)n3)c3nc(Nc4ccc(N5CCOCC5)cc4)ncc3[C@]2(C)CO1 (single isomer, unassigned) [Example 540] | 7.00 to 8.00 |
| CC1(C)C[C@@H]2N(c3cccc(N4CCOC4=O)n3)c3nc(Nc4ccc([C@H]5CNC[C@H]5F)cc4)ncc3[C@]2(C)CO1 [Example 673, 3-(6-((4bS,8aS)-2-((4-((3S,4S)-4-fluoropyrrolidin-3-yl)phenyl)amino)-4b,7,7-trimethyl-4b,7,8,8a-tetrahydropyrano[3′,4′:4,5]pyrrolo[2,3-d]pyrimidin-9(5H)-yl)pyridin-2-yl)oxazolidin-2-one] | 7.00 to 8.00 |
| CC1(C)C[C@@H]2N(c3cccc([C@H]4CCCN4)n3)c3nc(Nc4ccc(N5CCOCC5)cc4)ncc3[C@]2(C)CO1 (single isomer, unassigned) [Example 527] | 7.00 to 8.00 |
| CN1CC[C@@H](c2ccc(Nc3ncc4c(n3)N(c3cccc(N5CCOC5=O)n3)[C@H]3CC(C)(C)OC[C@@]43C)cc2)C1 (single isomer, unassigned) [Example 604] | 7.00 to 8.00 |
| CN1C[C@@H]2C[C@H]1CN2c1ccc(Nc2ncc3c(n2)N(c2cccc(N4CCCC4=O)n2)[C@H]2CC(C)(C)OC[C@@]32C)cc1F [Example 641, 1-(6-((4bS,8aS)-2-((3-fluoro-4-((1S,4S)-5-methyl-2,5-diazabicyclo[2.2.1]heptan-2-yl)phenyl)amino)-4b,7,7-trimethyl-4b,7,8,8a-tetrahydropyrano[3′,4′:4,5]pyrrolo[2,3-d]pyrimidin-9(5H)-yl)pyridin-2-yl)pyrrolidin-2-one] | 6.00 to 7.00 |
| CN1CC[C@@H](Oc2ccc(Nc3ncc4c(n3)N(c3cccc(N5CCCC5=O)n3)[C@H]3CC(C)(C)OC[C@@]43C)cc2)C1 [Example 627, 1-(6-((4bS,8aS)-4b,7,7-trimethyl-2-((4-(((R)-1-methylpyrrolidin-3-yl)oxy)phenyl)amino)-4b,7,8,8a-tetrahydropyrano[3′,4′:4,5]pyrrolo[2,3-d]pyrimidin-9(5H)-yl)pyridin-2-yl)pyrrolidin-2-one] | 7.00 to 8.00 |
| CN1CC[C@@H](c2ccc(Nc3ncc4c(n3)N(c3cccc(N5CCCC5=O)n3)[C@H]3CC(C)(C)OC[C@@]43C)cc2)C1 [Example 643, 1-(6-((4bS,8aS)-4b,7,7-trimethyl-2-((4-((S)-1-methylpyrrolidin-3-yl)phenyl)amino)-4b,7,8,8a-tetrahydropyrano[3′,4′:4,5]pyrrolo[2,3-d]pyrimidin-9(5H)-yl)pyridin-2-yl)pyrrolidin-2-one] | 7.00 to 8.00 |
